Measurements published in patent publication US20240209011A1, “HETEROAROMATIC PHOSPHONIUM SALTS FOR TREATING CANCER” (FLORATEK PHARMA S.A., priority 2021, published 2024).

How the values were obtained:
Format in all cases: cell-based
BT-474 = assay: Cell viability assay (CellTiter-Blue/CellTiter-Glow); details: Homo sapiens; breast carcinoma cell line BT-474; absolute IC50; 72 h
In short: (§1)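 72 h viability assay in RPMI 1640 or DMEM plus 10% FCS; seeding density set by growth rate (4,000-20,000 cells/well). CellTiter-Blue or CellTiter-Glo endpoint, absolute IC50 at T/C=50%.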

CHP-134 = assay: as above; details: Homo sapiens; brain carcinoma cell line CHP-134; absolute IC50; 72 h
In short: as §1

MDA-MB-231 = assay: as above; details: Homo sapiens; breast carcinoma cell line MDA-MB-231; absolute IC50; 72 h
In short: as §1

[1] = test system: brain carcinoma PDX GBM14-CHA; assay: PDX-derived cell culture cytotoxicity (CellTiter-Glo); details: 120 h; PDX brain carcinoma GBM14-CHA (FIG. 3); 5 days
Experimental: (§2) PDX-derived cell cultures were obtained from tumors explanted from mice and isolated by mechanical and enzymatic dissociation. […] Cells were harvested and seeded in 96-wells plates at a density of 1.25 to 5×10^3 cells/well for cytotoxicity assays. Cells were incubated 48 h at 37° C. prior to addition of test molecules and vehicle (DMSO, 0.1%) at desired final concentrations. Cell viability was assessed before drugs' addition (To) and 5 days after test molecules addition by measuring ATP cell content using CellTiter-Glo® Luminescent Cell Viability Assay (Promega) according to the manufacturer's instructions. Luciferase activity was measured on a luminometer (PerkinElmer® EnVision™). Each concentration of compounds was tested in triplicate.
(§3) Viability was calculated as a percentage of ATP value compared to vehicle treated controls.
(§4) For PDX primary cell cultures, the tumour tissue was washed with PBS containing antibiotic-antimycotic and non-tumour tissue and necrotic tumour tissues were separated. The tumour tissue was transferred to a new dish and cut into 1-2 mm^3 fragments, resuspended in RPMI-1640 medium and centrifuged at 1,200 rpm for 6 min at room temperature. The pelleted material was resuspended with 15 mL of Tumour Cell Digestion Solution and incubated at 37° C. for 1 hour with agitation. Following further addition of media, centrifugation and passage through a […] cell strainer, the homogenous cell mixture was layered onto 15 mL of Ficoll-Paque PLUS in a 50 mL conical tube and centrifuged for 15 min at 1,600 rpm. The interface cells were collected, washed with media, separated by centrifugation at 1,200 rpm. The cell pellet was resuspended in serum free media supplemented with growth factors. 10,000 cells/wells were plated in a 96 well plate and incubated at 37° C., 5% CO2, 95% air and 100% relative humidity overnight. The cytotoxicity assay was conducted as above. IC50 values represent absolute IC50.

[2] = test system: small cell lung carcinoma PDX SC6; assay: as above; details: 120 h; small cell lung carcinoma PDX SC6 (FIG. 13); 5 days
Experimental: as §2, §3, §4

parental H69 cells = assay: Cell viability assay (CellTiter-Blue/CellTiter-Glow); details: Homo sapiens, NCI-H69; SCLC parental H69 cells
In short: as §1

Structure (SMILES): O=c1cc(-c2ccc(CCCC[P+](c3ccccc3)(c3ccccc3)c3ccccc3)cc2)oc2c3c(ccc12)OCO3.[Br-] [SND123, 4-[4-(6-oxo-[1,3]dioxolo[4,5-h]chromen-8-yl)phenyl]butyl-triphenylphosphonium bromide]
- IC50 (BT-474): 1600 nM
- IC50 (CHP-134): 1800 nM
- IC50 (MDA-MB-231): 2000 nM

Structure (SMILES): COc1c(O)ccc2c(=O)cc(-c3ccc(CCCC[P+](c4ccccc4)(c4ccccc4)c4ccccc4)cc3)oc12.[Br-] [SND140, (4-(4-(7-hydroxy-8-methoxy-4-oxo-4H-chromen-2-yl)phenyl)butyl)triphenylphosphonium bromide]
- IC50 [1]: 6470 nM
- IC50 [2]: 7020 nM

Structure (SMILES): CCNC(=O)Oc1ccc2c(=O)cc(-c3ccc(CCCC[P+](c4ccccc4)(c4ccccc4)c4ccccc4)cc3)oc2c1O.[Br-] [SND126A, 4-[4-[7-(Ethylcarbamoyloxy)-8-hydroxy-4-oxo-chromen-2-yl]phenyl]butyltriphenylphosphonium bromide]
- IC50 (parental H69 cells): 3630 nM
